Results published in patent US8133847B2, “Pyrido[2,3-B]pyrazine derivatives useful as herbicidal compounds” (Syngenta Limited, priority 2006, dated 2012).

Legend:
Assay in all cases: Example B1 herbicidal action, post-emergence, 96-cell seed trays, climatic chamber
Format in all cases: in vivo
[1] = tested on: Amaranthus retroflexus (AMARE); conditions: Application post-emergence, 1000 mg/l spray equivalent to 1000 g/ha, evaluated after 9 days
Summary of the method: (§1)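 Plants at 8–9 days post-sowing (23/17 °C, 13 h light, 50–60% humidity) sprayed post-emergence with 1000 mg/l active ingredient in 10% DMSO, equivalent to 1000 g/ha. Grown on at 24/19 °C, watered twice daily; damage scored after 9 days (0 = none, 100 = total).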

Solanum nigrum (SOLNI) = conditions: Application post-emergence, 1000 mg/l spray equivalent to 1000 g/ha, evaluated after 9 days (100=total damage to plant, 0=no damage to plant)
Summary of the method: as §1

Stellaria media (STEME) = conditions: Application post-emergence, 1000 mg/l spray equivalent to 1000 g/ha, evaluated after 9 days (100=total damage to plant, 0=no damage to plant)
Summary of the method: as §1

[2] = tested on: Nasturtium officinale (NAAOF); design: scale not given here; conditions: Application post-emergence, 1000 mg/l spray equivalent to 1000 g/ha, evaluated after 9 days (100=total damage to plant, 0=no damage to plant)
Summary of the method: as §1

SMILES	damage to plant, Amaranthus retroflexus (AMARE) [1]	damage to plant, Solanum nigrum (SOLNI) (Solanum nigrum (SOLNI))	damage to plant, Stellaria media (STEME) (Stellaria media (STEME))	damage to plant, Nasturtium officinale (NAAOF) [2]
CCCC(CCC)C(=O)Oc1c(-c2c(F)ccc(F)c2Cl)c(=O)n(C)c2nccnc12 [Compound C96]	5	3	6	3
CC(CC(=O)Oc1c(-c2c(F)ccc(F)c2Cl)c(=O)n(C)c2nccnc12)CC(C)(C)C (centres unmarked) [Compound C98]	5	2	1	2
Cc1noc(C)c1C(=O)Oc1c(-c2c(F)ccc(F)c2Cl)c(=O)n(C)c2nccnc12 [Compound C100]	6	5	3	6
C=CCCCCCCCCC(=O)Oc1c(-c2c(F)ccc(F)c2Cl)c(=O)n(C)c2nccnc12 [Compound C101]	7	4	2	3
Cc1cc(C(=O)Oc2c(-c3c(F)ccc(F)c3Cl)c(=O)n(C)c3nccnc23)c(C)o1 [Compound C102]	4	7	7	7
CCn1c(=O)c(-c2c(C)cc(C)cc2C)c(OC(=O)C(C)C)c2nccnc21 [Compound C103]	4	7	7	6
CCn1c(=O)c(-c2cc(C(F)(F)F)cc(C(F)(F)F)c2)c(OC(C)=O)c2nccnc21 [Compound C104]	2	0	0	4
Cn1c(=O)c(-c2c(F)ccc(F)c2Cl)c(OC(=O)C(C)(C)C)c2nccnc21 [Compound C105]	5	5	8	6
Cn1c(=O)c(-c2c(Cl)ccc(Cl)c2Cl)c(OC(=O)C(C)(C)C)c2nccnc21 [Compound C108]	6	3	5	5
Cn1c(=O)c(-c2ccccc2C(F)(F)F)c(OC(=O)C(C)(C)C)c2nccnc21 [Compound C109]	3	6	0	4
CC(C)C(=O)Oc1c(-c2ccccc2C(F)(F)F)c(=O)n(C)c2nccnc12 [Compound C110]	7	6	7	6
CCn1c(=O)c(-c2c(F)ccc(F)c2Cl)c(OC(=O)CC(C)(C)C)c2nccnc21 [Compound C112]	6	7	7	5
C=CCC(=O)Oc1c(-c2c(F)ccc(F)c2Cl)c(=O)n(CC=C)c2nccnc12 [Compound C113]	7	6	8	6
Cc1ccc(Cl)c(-c2c(OC(=O)C(C)C)c3nccnc3n(C)c2=O)c1F [Compound C114]	2	2	6	5
CCn1c(=O)c(-c2c(Cl)ccc(C)c2F)c(OC(=O)C(C)C)c2nccnc21 [Compound C115]	4	4	8	7
Cc1ccc(Cl)c(-c2c(OC(=O)C(C)(C)C)c3nccnc3n(C)c2=O)c1F [Compound C116]	0	4	4	2
CCn1c(=O)c(-c2c(Cl)ccc(C)c2F)c(OC(=O)C(C)(C)C)c2nccnc21 [Compound C117]	0	5	1	0
CC(C)C(=O)Oc1c(-c2cc(C(F)(F)F)ccc2Cl)c(=O)n(C)c2nccnc12 [Compound C118]	6	6	8	7
CCn1c(=O)c(-c2cc(C(F)(F)F)ccc2Cl)c(OC(=O)C(C)C)c2nccnc21 [Compound C119]	7	6	8	7
Cn1c(=O)c(-c2c(Cl)cc(C(F)(F)F)cc2Cl)c(OC(=O)C(C)(C)C)c2nccnc21 [Compound C120]	5	7	7	6
Cn1c(=O)c(-c2cc(C(F)(F)F)ccc2Cl)c(OC(=O)C(C)(C)C)c2nccnc21 [Compound C121]	5	7	7	6
CCn1c(=O)c(-c2cc(C(F)(F)F)ccc2Cl)c(OC(=O)C(C)(C)C)c2nccnc21 [Compound C122]	6	6	7	4
Cn1c(=O)c(-c2cccc(C(F)(F)F)c2Cl)c(OC(=O)C(C)(C)C)c2nccnc21 [Compound C123]	4	6	6	4
CC(C)C(=O)Oc1c(-c2cccc(C(F)(F)F)c2Cl)c(=O)n(CC2CC2)c2nccnc12 [Compound C124]	9	7	8	8
C=CCn1c(=O)c(-c2cccc(C(F)(F)F)c2Cl)c(OC(=O)C(C)C)c2nccnc21 [Compound C125]	2	8	7	7
Cc1ccc(F)c(-c2c(OC(=O)C(C)C)c3nccnc3n(C)c2=O)c1Cl [Compound C126]	6	7	7	6
CCn1c(=O)c(-c2c(F)ccc(C)c2Cl)c(OC(=O)C(C)C)c2nccnc21 [Compound C127]	2	7	7	6
Cc1ccc(F)c(-c2c(OC(=O)C(C)(C)C)c3nccnc3n(C)c2=O)c1Cl [Compound C128]	3	7	6	6
CC#CCOC(=O)Oc1c(-c2c(Cl)cccc2Cl)c(=O)n(C)c2nccnc12 [Compound C178]	4	2	7	6
